Source: ChEMBL document CHEMBL2073801, “Chlorpyrifos oxon interacts with the mammalian multidrug resistance protein, P-glycoprotein” (J Toxicol Environ Health, 1996)
Entries after “also recorded” stand apart in the source; their conditions may differ.

Legend:
[1] = biological target: ATP-dependent translocase ABCB1 (Homo sapiens, UniProt P08183); experiment: TP_TRANSPORTER: ATP hydrolysis in MDR1-expressing Sf9 cells; type: functional
[2] = biological target: Multidrug resistance protein 1a (Rattus norvegicus) (UniProt Q6PSM0); experiment: TP_TRANSPORTER: Immunohistochemisty in vivo, liver of Fischer 344 rat; type: functional, organism-based
[3] = biological target: Multidrug resistance protein 1a (Rattus norvegicus) (UniProt Q6PSM0); experiment: TP_TRANSPORTER: Immunohistochemisty in vivo, stomach of Fischer 344 rat; type: functional, organism-based
[4] = biological target: Multidrug resistance protein 1a (Rattus norvegicus) (UniProt Q6PSM0); experiment: TP_TRANSPORTER: Immunohistochemisty in vivo, kidney of Fischer 344 rat; type: functional, organism-based
[5] = biological target: Multidrug resistance protein 1a (Rattus norvegicus) (UniProt Q6PSM0); experiment: TP_TRANSPORTER: Immunohistochemisty in vivo, jejunum of Fischer 344 rat; type: functional, organism-based
[6] = biological target: Multidrug resistance protein 1a (Rattus norvegicus) (UniProt Q6PSM0); experiment: TP_TRANSPORTER: Immunohistochemisty in vivo, adrenals of Fischer 344 rat; type: functional, organism-based; conditions: Adrenal tissue

Chain of Multidrug resistance protein 1a (Rattus norvegicus) (Q6PSM0 as listed by the source): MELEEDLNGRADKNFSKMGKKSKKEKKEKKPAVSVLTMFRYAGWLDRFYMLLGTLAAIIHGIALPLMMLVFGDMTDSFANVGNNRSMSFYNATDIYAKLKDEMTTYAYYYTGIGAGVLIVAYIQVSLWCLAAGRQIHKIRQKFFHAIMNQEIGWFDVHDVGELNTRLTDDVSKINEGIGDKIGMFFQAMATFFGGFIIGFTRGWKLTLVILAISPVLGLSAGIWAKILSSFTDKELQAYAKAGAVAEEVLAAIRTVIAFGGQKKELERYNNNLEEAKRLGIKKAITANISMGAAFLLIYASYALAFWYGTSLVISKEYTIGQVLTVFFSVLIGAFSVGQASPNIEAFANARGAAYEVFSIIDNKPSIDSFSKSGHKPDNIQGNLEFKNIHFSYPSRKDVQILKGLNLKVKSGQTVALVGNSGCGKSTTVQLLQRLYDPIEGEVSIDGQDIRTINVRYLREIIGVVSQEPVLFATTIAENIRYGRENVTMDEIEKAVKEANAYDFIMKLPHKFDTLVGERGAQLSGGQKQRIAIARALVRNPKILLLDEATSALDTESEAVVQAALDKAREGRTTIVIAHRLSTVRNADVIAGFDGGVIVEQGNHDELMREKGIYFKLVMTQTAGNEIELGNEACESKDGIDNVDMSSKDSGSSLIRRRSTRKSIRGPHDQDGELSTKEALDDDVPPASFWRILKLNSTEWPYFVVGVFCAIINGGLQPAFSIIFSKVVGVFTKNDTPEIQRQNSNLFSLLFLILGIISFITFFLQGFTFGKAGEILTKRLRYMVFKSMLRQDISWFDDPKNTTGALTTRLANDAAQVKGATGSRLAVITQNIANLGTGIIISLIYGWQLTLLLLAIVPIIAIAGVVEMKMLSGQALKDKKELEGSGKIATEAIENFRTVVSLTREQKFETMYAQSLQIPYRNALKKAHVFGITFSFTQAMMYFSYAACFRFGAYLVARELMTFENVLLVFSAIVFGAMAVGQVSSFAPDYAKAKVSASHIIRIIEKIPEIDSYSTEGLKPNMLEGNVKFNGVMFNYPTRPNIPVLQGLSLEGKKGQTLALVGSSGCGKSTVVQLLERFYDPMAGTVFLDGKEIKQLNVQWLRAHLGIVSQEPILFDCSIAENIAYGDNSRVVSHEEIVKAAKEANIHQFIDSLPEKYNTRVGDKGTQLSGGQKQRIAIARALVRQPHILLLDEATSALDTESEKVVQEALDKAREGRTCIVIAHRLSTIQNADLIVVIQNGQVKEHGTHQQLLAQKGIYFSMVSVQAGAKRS
Chain of ATP-dependent translocase ABCB1 (P08183 whole entry): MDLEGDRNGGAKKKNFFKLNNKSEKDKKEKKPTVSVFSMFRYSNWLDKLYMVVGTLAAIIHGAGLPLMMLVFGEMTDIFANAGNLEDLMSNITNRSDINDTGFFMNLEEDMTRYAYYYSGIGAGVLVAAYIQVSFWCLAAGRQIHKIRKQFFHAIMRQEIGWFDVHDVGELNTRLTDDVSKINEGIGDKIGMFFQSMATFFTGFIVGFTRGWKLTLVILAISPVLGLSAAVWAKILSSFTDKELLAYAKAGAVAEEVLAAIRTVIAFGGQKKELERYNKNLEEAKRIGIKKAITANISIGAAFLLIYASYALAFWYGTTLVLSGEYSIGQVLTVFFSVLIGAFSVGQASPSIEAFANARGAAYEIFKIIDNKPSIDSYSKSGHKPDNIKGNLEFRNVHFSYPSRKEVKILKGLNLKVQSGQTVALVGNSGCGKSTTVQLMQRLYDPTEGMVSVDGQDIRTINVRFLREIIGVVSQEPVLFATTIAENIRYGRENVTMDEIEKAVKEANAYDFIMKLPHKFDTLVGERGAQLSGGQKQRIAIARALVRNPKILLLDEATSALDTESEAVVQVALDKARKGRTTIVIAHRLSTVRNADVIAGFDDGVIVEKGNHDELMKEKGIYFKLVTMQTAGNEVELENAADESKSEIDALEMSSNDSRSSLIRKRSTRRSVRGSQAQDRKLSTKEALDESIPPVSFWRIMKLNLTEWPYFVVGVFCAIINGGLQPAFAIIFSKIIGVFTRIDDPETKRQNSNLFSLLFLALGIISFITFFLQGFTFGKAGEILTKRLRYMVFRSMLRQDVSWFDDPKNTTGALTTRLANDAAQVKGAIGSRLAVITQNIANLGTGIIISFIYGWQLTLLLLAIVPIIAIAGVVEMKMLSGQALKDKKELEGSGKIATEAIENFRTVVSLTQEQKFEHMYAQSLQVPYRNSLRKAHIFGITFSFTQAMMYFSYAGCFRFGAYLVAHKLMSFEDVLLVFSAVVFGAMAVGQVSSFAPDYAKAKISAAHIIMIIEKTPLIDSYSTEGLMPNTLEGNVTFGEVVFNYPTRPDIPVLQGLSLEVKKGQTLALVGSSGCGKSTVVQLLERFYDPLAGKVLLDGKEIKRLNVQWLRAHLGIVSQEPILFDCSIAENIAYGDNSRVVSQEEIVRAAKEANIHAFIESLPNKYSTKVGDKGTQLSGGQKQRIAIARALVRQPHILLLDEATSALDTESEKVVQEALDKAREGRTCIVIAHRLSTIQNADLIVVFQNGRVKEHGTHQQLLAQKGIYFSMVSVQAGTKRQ

CCOP(=S)(OCC)Oc1nc(Cl)c(Cl)cc1Cl [CHLORPYRIFOS]
Activity [1]: substrate [+]; also recorded: is not a substrate [-]
Activity [2]: inducer [+]
Activity [3]: inducer [+]
Activity [4]: inducer [+]
Activity [5]: inducer [+]
Activity [6]: inducer [+]
